# From US20250213505A1, “DEVICES AND METHODS FOR DELIVERING SYNERGISTIC ACTIVE AGENTS TO TARGET SITES” (priority 2023, published 2025)
# Like-named read-outs stand apart in the source and are kept apart here.
# Experiments:
# Format in all cases: cell-based
# S. aureus (ATCC 6538) [1] = assay: Minimum inhibitory concentration / growth inhibition, serial 2-fold dilution
# Method: (§1) The minimal inhibitory concentration (MIC, the minimum inhibitory concentration required for 90% growth reduction) of benzalkonium chloride was determined against S. aureus (ATCC 6538), P. aeruginosa (ATCC 15442), and E. coli (ATCC BAA 1427) by serial 2-fold dilution experiments. A solution of chlorhexidine (0.025% w/w) was used as a positive control and comparator.
# E. coli (ATCC BAA 1427) [2] = assay: as above
# Method: as §1
# [3] = system: P. aeruginosa (ATCC 15442); assay: as above
# Method: as §1
# S. aureus (ATCC 6538) [4] = assay: Minimal bactericidal concentration, serial 2-fold dilution
# Method: (§2) The minimal bactericidal concentration (MBC) of benzalkonium chloride was determined against S. aureus (ATCC 6538), P. aeruginosa (ATCC 15442), and E. coli (ATCC BAA 1427) by serial 2-fold dilution experiments. A solution of chlorhexidine (0.025% w/w) was used as a positive control and comparator.
# E. coli (ATCC BAA 1427) [5] = assay: as above
# Method: as §2
# [6] = system: P. aeruginosa (ATCC 15442); assay: as above
# Method: as §2
# S. aureus = assay: Chequerboard assay, FIC and synergy analysis; details: for MIC: Staphylococcus aureus
# Method: (§3) Chlorhexidine gluconate (CHG) and benzalkonium chloride (BZK) were analyzed by chequerboard assay with each test organism to determine potential additive, synergistic, antagonistic activity. The test organisms S. aureus, P. aeruginosa, and E. coli were tested at ranges of chlorhexidine gluconate (0.122-15.625 μg/mL, 1.25-160 μg/mL, and […], respectively) and benzalkonium chloride (0.029-3.75 μg/mL, 0.4688-60 μg/mL, and 0.2344-30 μg/mL, respectively). The results of the chequerboard experiment are shown in Table X. FIC was calculated by the following Equation 2: […]
# P. aeruginosa = assay: Chequerboard assay, FIC and synergy analysis; details: for MIC: Pseudomonas aeruginosa
# Method: as §3
# E. coli = assay: Chequerboard assay, FIC and synergy analysis; details: for MIC: Escherichia coli
# Method: as §3
# [7] = concentration 250 μg/mL (0.025% w/w), positive control
# [8] = concentration 250 μg/mL (0.025% w/w), positive control, listed as chlorhexidine
# [9] = concentration 250 μg/mL, positive control
# [10] = read-out: MIC of CHG in Presence of BZK
# [11] = concentration 0.46875 μg/mL, triplicate
# [12] = concentration 0.9375 μg/mL, triplicate
# [13] = concentration 1.875 μg/mL, triplicate
# [14] = concentration 3.75 μg/mL, triplicate
# [15] = concentration 7.5 μg/mL, triplicate
# [16] = concentration 15 μg/mL, triplicate
# [17] = concentration 30 μg/mL, triplicate
# [18] = concentration 60 μg/mL, triplicate
# [19] = serial 2-fold dilution, triplicate
# [20] = concentration 0.46875 μg/mL, average of triplicate
# [21] = concentration 0.9375 μg/mL, average of triplicate
# [22] = concentration 1.875 μg/mL, average of triplicate
# [23] = concentration 3.75 μg/mL, average of triplicate
# [24] = concentration 7.5 μg/mL, average of triplicate
# [25] = concentration 15 μg/mL, average of triplicate
# [26] = concentration 30 μg/mL, average of triplicate
# [27] = concentration 60 μg/mL, average of triplicate
compound,measurement,setting,value
"N=C(NCCCCCCNC(=N)NC(=N)Nc1ccc(Cl)cc1)NC(=N)Nc1ccc(Cl)cc1 [Chlorhexidine gluconate, 1-[amino-[6-[amino-[amino-(4-chlorophenyl)amino-methylidene]amino-methylidene]aminohexylimino]methyl]imino-N-(4-chlorophenyl)-methanediamine; (2R,3S,4R,5R)-2,3,4,5,6-pentahydroxyhexanoic acid.]",inhibition at 250 µg/mL,"S. aureus (ATCC 6538) [1]; Staphylococcus aureus, ATCC6538, read-out: Average Growth Inhibition (%)",121%
same,inhibition at 250 µg/mL,"E. coli (ATCC BAA 1427) [2]; Escherichia coli, BAA1427, concentration 250 μg/mL (0.025% w/w), positive control",63%
same,inhibition at 250 µg/mL,"[3]; Pseudomonas aeruginosa, ATCC15442, read-out: Average Growth Inhibition (%)",81%
same,Number of Colonies,S. aureus (ATCC 6538) [4]; [7],0
same,Number of Colonies,S. aureus (ATCC 6538) [4]; [8],no colonies
same,CFU/mL,S. aureus (ATCC 6538) [4]; [9],0 CFU/mL
same,Number of Colonies,E. coli (ATCC BAA 1427) [5]; [7],0
same,Number of Colonies,E. coli (ATCC BAA 1427) [5]; [8],no colonies
same,CFU/mL,E. coli (ATCC BAA 1427) [5]; [9],0 CFU/mL
same,Number of Colonies,[6]; [7],0
same,Number of Colonies,[6]; [8],no colonies
same,CFU/mL,[6]; [9],0 CFU/mL
same,MIC,S. aureus; read-out: MIC of CHG Alone,1.95 µg/mL
same,MIC,S. aureus; [10],0.977 µg/mL
same,MIC,P. aeruginosa; read-out: MIC of CHG Alone (μg/mL),40 µg/mL
same,MIC,P. aeruginosa; read-out: MIC of CHG in Presence of BZK (μg/mL),2.5 µg/mL
same,MIC,E. coli; read-out: MIC of CHG Alone,8 µg/mL
same,MIC,E. coli; [10],4 µg/mL
Benzalkonium chloride,Average Growth Inhibition (%),S. aureus (ATCC 6538) [1]; [11],−30%
same,Average Growth Inhibition (%),S. aureus (ATCC 6538) [1]; [12],100%
same,Average Growth Inhibition (%),S. aureus (ATCC 6538) [1]; [13],101%
same,Average Growth Inhibition (%),S. aureus (ATCC 6538) [1]; [14],101%
same,Average Growth Inhibition (%),S. aureus (ATCC 6538) [1]; [15],99%
same,Average Growth Inhibition (%),S. aureus (ATCC 6538) [1]; [16],101%
same,Average Growth Inhibition (%),S. aureus (ATCC 6538) [1]; [17],101%
same,Average Growth Inhibition (%),S. aureus (ATCC 6538) [1]; [18],98%
same,MIC that inhibited greater than 90% growth,S. aureus (ATCC 6538) [1]; [19],0.9375 µg/mL
same,Average Growth Inhibition (%),E. coli (ATCC BAA 1427) [2]; [11],3%
same,Average Growth Inhibition (%),E. coli (ATCC BAA 1427) [2]; [12],5%
same,Average Growth Inhibition (%),E. coli (ATCC BAA 1427) [2]; [13],6%
same,Average Growth Inhibition (%),E. coli (ATCC BAA 1427) [2]; [14],7%
same,Average Growth Inhibition (%),E. coli (ATCC BAA 1427) [2]; [15],18%
same,Average Growth Inhibition (%),E. coli (ATCC BAA 1427) [2]; [16],100%
same,Average Growth Inhibition (%),E. coli (ATCC BAA 1427) [2]; [17],100%
same,Average Growth Inhibition (%),E. coli (ATCC BAA 1427) [2]; [18],100%
same,MIC that inhibited greater than 90% growth,E. coli (ATCC BAA 1427) [2]; [19],15 µg/mL
same,Average Growth Inhibition (%),[3]; [11],4%
same,Average Growth Inhibition (%),[3]; [12],5%
same,Average Growth Inhibition (%),[3]; [13],7%
same,Average Growth Inhibition (%),[3]; [14],7%
same,Average Growth Inhibition (%),[3]; [15],8%
same,Average Growth Inhibition (%),[3]; [16],8%
same,Average Growth Inhibition (%),[3]; [17],28%
same,Average Growth Inhibition (%),[3]; [18],100%
same,MIC that inhibited greater than 90% growth,[3]; [19],60 µg/mL
same,CFU/mL,S. aureus (ATCC 6538) [4]; concentration 0.46875 μg/mL,Lawn
same,Number of Colonies,S. aureus (ATCC 6538) [4]; [20],"Lawn (‘Lawn’ indicates too many colonies to accurately count (e.g., greater than 250 colonies on an agar plate))"
same,CFU/mL,S. aureus (ATCC 6538) [4]; concentration 0.9375 μg/mL,Lawn
same,Number of Colonies,S. aureus (ATCC 6538) [4]; [21],"Lawn (‘Lawn’ indicates too many colonies to accurately count (e.g., greater than 250 colonies on an agar plate))"
same,CFU/mL,S. aureus (ATCC 6538) [4]; concentration 1.875 μg/mL,1133.3 CFU/mL
same,Number of Colonies,S. aureus (ATCC 6538) [4]; [22],11.333
same,CFU/mL,S. aureus (ATCC 6538) [4]; concentration 3.75 μg/mL,1500 CFU/mL
same,Number of Colonies,S. aureus (ATCC 6538) [4]; [23],15
same,CFU/mL,S. aureus (ATCC 6538) [4]; concentration 7.5 μg/mL,33.333 CFU/mL
same,Number of Colonies,S. aureus (ATCC 6538) [4]; [24],0.333
same,CFU/mL,S. aureus (ATCC 6538) [4]; concentration 15 μg/mL,0 CFU/mL
same,Number of Colonies,S. aureus (ATCC 6538) [4]; [25],0
same,CFU/mL,S. aureus (ATCC 6538) [4]; concentration 30 μg/mL,0 CFU/mL
same,Number of Colonies,S. aureus (ATCC 6538) [4]; [26],0
same,CFU/mL,S. aureus (ATCC 6538) [4]; concentration 60 μg/mL,0 CFU/mL
same,Number of Colonies,S. aureus (ATCC 6538) [4]; [27],0
same,MBC (defined as having less than 500 CFU/mL),S. aureus (ATCC 6538) [4]; [19],7.5 µg/mL
same,CFU/mL,E. coli (ATCC BAA 1427) [5]; concentration 0.46875 μg/mL,Lawn
same,Number of Colonies,E. coli (ATCC BAA 1427) [5]; [20],"Lawn (‘Lawn’ indicates too many colonies to accurately count (e.g., greater than 250 colonies on an agar plate))"
same,CFU/mL,E. coli (ATCC BAA 1427) [5]; concentration 0.9375 μg/mL,Lawn
same,Number of Colonies,E. coli (ATCC BAA 1427) [5]; [21],"Lawn (‘Lawn’ indicates too many colonies to accurately count (e.g., greater than 250 colonies on an agar plate))"
same,CFU/mL,E. coli (ATCC BAA 1427) [5]; concentration 1.875 μg/mL,Lawn
same,Number of Colonies,E. coli (ATCC BAA 1427) [5]; [22],"Lawn (‘Lawn’ indicates too many colonies to accurately count (e.g., greater than 250 colonies on an agar plate))"
same,CFU/mL,E. coli (ATCC BAA 1427) [5]; concentration 3.75 μg/mL,Lawn
same,Number of Colonies,E. coli (ATCC BAA 1427) [5]; [23],"Lawn (‘Lawn’ indicates too many colonies to accurately count (e.g., greater than 250 colonies on an agar plate))"
same,CFU/mL,E. coli (ATCC BAA 1427) [5]; concentration 7.5 μg/mL,Lawn
same,Number of Colonies,E. coli (ATCC BAA 1427) [5]; [24],"Lawn (‘Lawn’ indicates too many colonies to accurately count (e.g., greater than 250 colonies on an agar plate))"
same,CFU/mL,E. coli (ATCC BAA 1427) [5]; concentration 15 μg/mL,0 CFU/mL
same,Number of Colonies,E. coli (ATCC BAA 1427) [5]; [25],0
same,CFU/mL,E. coli (ATCC BAA 1427) [5]; concentration 30 μg/mL,0 CFU/mL
same,Number of Colonies,E. coli (ATCC BAA 1427) [5]; [26],0
same,CFU/mL,E. coli (ATCC BAA 1427) [5]; concentration 60 μg/mL,0 CFU/mL
same,Number of Colonies,E. coli (ATCC BAA 1427) [5]; [27],0
same,MBC (defined as having less than 500 CFU/mL),E. coli (ATCC BAA 1427) [5]; [19],15 µg/mL
same,CFU/mL,[6]; concentration 0.46875 μg/mL,Lawn
same,Number of Colonies,[6]; [20],"Lawn (‘Lawn’ indicates too many colonies to accurately count (e.g., greater than 250 colonies on an agar plate))"
same,CFU/mL,[6]; concentration 0.9375 μg/mL,Lawn
same,Number of Colonies,[6]; [21],"Lawn (‘Lawn’ indicates too many colonies to accurately count (e.g., greater than 250 colonies on an agar plate))"
same,CFU/mL,[6]; concentration 1.875 μg/mL,Lawn
same,Number of Colonies,[6]; [22],"Lawn (‘Lawn’ indicates too many colonies to accurately count (e.g., greater than 250 colonies on an agar plate))"
same,CFU/mL,[6]; concentration 3.75 μg/mL,Lawn
same,Number of Colonies,[6]; [23],"Lawn (‘Lawn’ indicates too many colonies to accurately count (e.g., greater than 250 colonies on an agar plate))"
same,CFU/mL,[6]; concentration 7.5 μg/mL,Lawn
same,Number of Colonies,[6]; [24],"Lawn (‘Lawn’ indicates too many colonies to accurately count (e.g., greater than 250 colonies on an agar plate))"
same,CFU/mL,[6]; concentration 15 μg/mL,Lawn
same,Number of Colonies,[6]; [25],"Lawn (‘Lawn’ indicates too many colonies to accurately count (e.g., greater than 250 colonies on an agar plate))"
same,CFU/mL,[6]; concentration 30 μg/mL,Lawn
same,Number of Colonies,[6]; [26],"Lawn (‘Lawn’ indicates too many colonies to accurately count (e.g., greater than 250 colonies on an agar plate))"
same,CFU/mL,[6]; concentration 60 μg/mL,166.67 CFU/mL
same,Number of Colonies,[6]; [27],1.6667
same,MBC (defined as having less than 500 CFU/mL),[6]; [19],60 µg/mL
same,MIC of BZK Alone,S. aureus; alone,0.9375 µg/mL
same,MIC of BZK in Presence of CHG,S. aureus; in presence of CHG,0.469 µg/mL
same,MIC of BZK Alone,P. aeruginosa; alone,60 µg/mL
same,MIC of BZK in Presence of CHG,P. aeruginosa; in presence of CHG,7.5 µg/mL
same,MIC of BZK Alone,E. coli; alone,15 µg/mL
same,MIC of BZK in Presence of CHG,E. coli; in presence of CHG,0.2344 µg/mL
